Source: the supplement of paper PMC10307832

Key:
Assay in all cases: relative viability (nuclei count vs DMSO), 5 days (fraction); higher = more cells survive
NCI-H1651 = tested on: NCI-H1651
Outline: (§1)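 Dosing by pin tool came one day after lung cancer cell lines were seeded in 1536-well plates, using either one drug or a fixed anchor-drug dose plus five library-drug doses (not always all listed) in √10 steps. After 5 days, nuclei were counted on 4× images. Relative viability is treated-well nuclei count divided by vehicle-well nuclei count, and values are medians of duplicate plates.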

NCI-H460 = tested on: NCI-H460
Outline: as §1

NCI-H2170 = tested on: NCI-H2170
Outline: as §1

NCI-H1944 = tested on: NCI-H1944
Outline: as §1

RERF-LC-KJ = tested on: RERF-LC-KJ
Outline: as §1

ChaGo-K-1 = tested on: ChaGo-K-1
Outline: as §1

NCI-H2087 = tested on: NCI-H2087
Outline: as §1

NCI-H2405 = tested on: NCI-H2405
Outline: as §1

CAL-12T = tested on: CAL-12T
Outline: as §1

NCI-H1734 = tested on: NCI-H1734
Outline: as §1

LOU-NH91 = tested on: LOU-NH91
Outline: as §1

LU99A = tested on: LU99A
Outline: as §1

UMC-11 = tested on: UMC-11
Outline: as §1

PC-3 [JPC-3] = tested on: PC-3 [JPC-3]
Outline: as §1

ABC-1 = tested on: ABC-1
Outline: as §1

NCI-H3122 = tested on: NCI-H3122
Outline: as §1

HCC-78 = tested on: HCC-78
Outline: as §1

HCC-366 = tested on: HCC-366
Outline: as §1

NCI-H1395 = tested on: NCI-H1395
Outline: as §1

NCI-H2228 = tested on: NCI-H2228
Outline: as §1

EPLC-272H = tested on: EPLC-272H
Outline: as §1

LC-2-ad = tested on: LC-2-ad
Outline: as §1

NCI-H1755 = tested on: NCI-H1755
Outline: as §1

NCI-H1793 = tested on: NCI-H1793
Outline: as §1

Clc1ccc(Nc2nnc(Cc3ccncc3)c3ccccc23)cc1 [Vatalanib] + N=C(N)NC(=N)NCCc1ccccc1 [Phenformin] (partner 250 µM)
relative viability (NCI-H1651; first compound 0.04 µM): 0.342
relative viability (NCI-H1651; first compound 0.1265 µM): 0.29
relative viability (NCI-H1651; first compound 0.4 µM): 0.311
relative viability (NCI-H1651; first compound 1.265 µM): 0.312
relative viability (NCI-H1651; first compound 4 µM): 0.405
relative viability (NCI-H460; first compound 0.04 µM): 0.582
relative viability (NCI-H460; first compound 0.1265 µM): 0.539
relative viability (NCI-H460; first compound 0.4 µM): 0.556
relative viability (NCI-H460; first compound 1.265 µM): 0.51
relative viability (NCI-H460; first compound 4 µM): 0.432
relative viability (NCI-H2170; first compound 0.04 µM): 0.437
relative viability (NCI-H2170; first compound 0.1265 µM): 0.476
relative viability (NCI-H2170; first compound 0.4 µM): 0.469
relative viability (NCI-H2170; first compound 1.265 µM): 0.405
relative viability (NCI-H2170; first compound 4 µM): 0.353
relative viability (NCI-H1944; first compound 0.04 µM): 0.221
relative viability (NCI-H1944; first compound 0.1265 µM): 0.198
relative viability (NCI-H1944; first compound 0.4 µM): 0.212
relative viability (NCI-H1944; first compound 1.265 µM): 0.188
relative viability (NCI-H1944; first compound 4 µM): 0.19
relative viability (RERF-LC-KJ; first compound 0.04 µM): 0.479
relative viability (RERF-LC-KJ; first compound 0.1265 µM): 0.41
relative viability (RERF-LC-KJ; first compound 0.4 µM): 0.443
relative viability (RERF-LC-KJ; first compound 1.265 µM): 0.341
relative viability (RERF-LC-KJ; first compound 4 µM): 0.425
relative viability (ChaGo-K-1; first compound 0.04 µM): 0.453
relative viability (ChaGo-K-1; first compound 0.1265 µM): 0.407
relative viability (ChaGo-K-1; first compound 0.4 µM): 0.522
relative viability (ChaGo-K-1; first compound 1.265 µM): 0.432
relative viability (ChaGo-K-1; first compound 4 µM): 0.431
relative viability (NCI-H2087; first compound 0.04 µM): 0.484
relative viability (NCI-H2087; first compound 0.1265 µM): 0.404
relative viability (NCI-H2087; first compound 0.4 µM): 0.428
relative viability (NCI-H2087; first compound 1.265 µM): 0.461
relative viability (NCI-H2087; first compound 4 µM): 0.541
relative viability (NCI-H2405; first compound 0.04 µM): 0.425
relative viability (NCI-H2405; first compound 0.1265 µM): 0.376
relative viability (NCI-H2405; first compound 1.265 µM): 0.391
relative viability (NCI-H2405; first compound 4 µM): 0.368
relative viability (CAL-12T; first compound 0.04 µM): 0.633
relative viability (CAL-12T; first compound 0.1265 µM): 0.495
relative viability (CAL-12T; first compound 0.4 µM): 0.328
relative viability (CAL-12T; first compound 1.265 µM): 0.539
relative viability (CAL-12T; first compound 4 µM): 0.567
relative viability (NCI-H1734; first compound 0.04 µM): 0.459
relative viability (NCI-H1734; first compound 0.1265 µM): 0.328
relative viability (NCI-H1734; first compound 0.4 µM): 0.463
relative viability (NCI-H1734; first compound 1.265 µM): 0.322
relative viability (NCI-H1734; first compound 4 µM): 0.346
relative viability (LOU-NH91; first compound 0.04 µM): 0.694
relative viability (LOU-NH91; first compound 0.1265 µM): 0.679
relative viability (LOU-NH91; first compound 1.265 µM): 0.697
relative viability (LOU-NH91; first compound 4 µM): 0.668
relative viability (LU99A; first compound 0.04 µM): 0.839
relative viability (LU99A; first compound 0.1265 µM): 0.764
relative viability (LU99A; first compound 0.4 µM): 1.04
relative viability (LU99A; first compound 1.265 µM): 0.705
relative viability (LU99A; first compound 4 µM): 0.813
relative viability (UMC-11; first compound 0.04 µM): 0.311
relative viability (UMC-11; first compound 0.1265 µM): 0.328
relative viability (UMC-11; first compound 0.4 µM): 0.319
relative viability (UMC-11; first compound 1.265 µM): 0.298
relative viability (UMC-11; first compound 4 µM): 0.333
relative viability (PC-3 [JPC-3]; first compound 0.04 µM): 0.456
relative viability (PC-3 [JPC-3]; first compound 0.1265 µM): 0.465
relative viability (PC-3 [JPC-3]; first compound 0.4 µM): 0.456
relative viability (PC-3 [JPC-3]; first compound 1.265 µM): 0.493
relative viability (PC-3 [JPC-3]; first compound 4 µM): 0.508
relative viability (ABC-1; first compound 0.04 µM): 0.241
relative viability (ABC-1; first compound 0.1265 µM): 0.242
relative viability (ABC-1; first compound 1.265 µM): 0.262
relative viability (ABC-1; first compound 4 µM): 0.222
relative viability (NCI-H3122; first compound 0.04 µM): 0.401
relative viability (NCI-H3122; first compound 0.1265 µM): 0.365
relative viability (NCI-H3122; first compound 1.265 µM): 0.316
relative viability (NCI-H3122; first compound 4 µM): 0.323
relative viability (HCC-78; first compound 0.04 µM): 0.589
relative viability (HCC-78; first compound 0.1265 µM): 0.613
relative viability (HCC-78; first compound 0.4 µM): 0.631
relative viability (HCC-78; first compound 1.265 µM): 0.649
relative viability (HCC-78; first compound 4 µM): 0.575
relative viability (HCC-366; first compound 0.04 µM): 0.597
relative viability (HCC-366; first compound 0.1265 µM): 0.554
relative viability (HCC-366; first compound 0.4 µM): 0.6
relative viability (HCC-366; first compound 1.265 µM): 0.575
relative viability (HCC-366; first compound 4 µM): 0.547
relative viability (NCI-H1395; first compound 0.04 µM): 0.441
relative viability (NCI-H1395; first compound 0.1265 µM): 0.419
relative viability (NCI-H1395; first compound 0.4 µM): 0.437
relative viability (NCI-H1395; first compound 1.265 µM): 0.399
relative viability (NCI-H1395; first compound 4 µM): 0.449
relative viability (NCI-H2228; first compound 0.04 µM): 0.364
relative viability (NCI-H2228; first compound 0.1265 µM): 0.317
relative viability (NCI-H2228; first compound 0.4 µM): 0.335
relative viability (NCI-H2228; first compound 1.265 µM): 0.366
relative viability (NCI-H2228; first compound 4 µM): 0.322
relative viability (EPLC-272H; first compound 0.04 µM): 0.324
relative viability (EPLC-272H; first compound 0.1265 µM): 0.323
relative viability (EPLC-272H; first compound 0.4 µM): 0.275
relative viability (EPLC-272H; first compound 1.265 µM): 0.349
relative viability (EPLC-272H; first compound 4 µM): 0.348
relative viability (LC-2-ad; first compound 0.04 µM): 0.652
relative viability (LC-2-ad; first compound 0.1265 µM): 0.553
relative viability (LC-2-ad; first compound 1.265 µM): 0.517
relative viability (LC-2-ad; first compound 4 µM): 0.55
relative viability (NCI-H1755; first compound 0.04 µM): 0.613
relative viability (NCI-H1755; first compound 0.1265 µM): 0.577
relative viability (NCI-H1755; first compound 0.4 µM): 0.661
relative viability (NCI-H1755; first compound 1.265 µM): 0.596
relative viability (NCI-H1755; first compound 4 µM): 0.603
relative viability (NCI-H1793; first compound 0.04 µM): 0.354
relative viability (NCI-H1793; first compound 0.1265 µM): 0.341
relative viability (NCI-H1793; first compound 0.4 µM): 0.435
relative viability (NCI-H1793; first compound 1.265 µM): 0.295
relative viability (NCI-H1793; first compound 4 µM): 0.296
